Measurements published in PMC5992141, “Discovery of pancreastatin inhibitor PSTi8 for the treatment of insulin resistance and diabetes: studies in rodent models of diabetes mellitus” (Scientific Reports, 2018).
Each block holds one molecule with its values, some of them ahead of it. Residues, ends and D or L forms follow the SMILES beside them.

Assays:
C57Bl/6 mice = experiment: Glucose reduction experiment, normoglycemic mice; type: in vivo; settings: control C57Bl/6 mice (normoglycemic), acute i.p. 5 mg/kg
Method: (§1) All animal experiments were performed according to protocols approved by Institutional Animal Ethics Committee (IAEC approval no. IAEC/2012/31-A), CSIR-Central Drug Research Institute (CSIR-CDRI, India). Male C57BL/6 mice (8–10 weeks, 15–20 g) and male db/db mice (10–12 weeks, 45–50 g) were obtained from Laboratory of Animal Division, CSIR-CDRI. […] After successful of model development diabetic mice divided in two groups, vehicle control group receive saline and treated group receive PSTi8. After acute (5 mg/kg) and chronic (2 mg/kg) treatment of PSTi8 for 10 days, mice were fasted for 6 hr before experiments and then sacrificed to collect plasma and tissues, which were snap frozen in liquid nitrogen.

[1] = In-vivo pharmacokinetic study in db/db mice; settings: i.p. 5 mg/kg, SPE, LC-MS/MS
Method: PSTi8 (5 mg/kg) was administered (i.p) in db/db mice for PK study. After dosing, blood samples were collected at different time points. Plasma samples (100 µL) were processed using the solid phase extraction (SPE). The 100 µL of eluted SPE samples were injected into the liquid chromatography tandem mass spectrometry (LC-MS/MS) (API 4000QTRAP, ABSciex, Canada) for analysis. The PK profile and parameters were evaluated by non-compartmental model approach using Pheonix 6.3 WinNonlin(Pharsight Corporation, USA).

GRP78 receptor [2] = biological target: T1, GRP78 receptor (Homo sapiens, UniProt P11021); experiment: Competitive binding with sulphorhodamine labelled PST and PSTi8 in HepG2 cells; design: endogenous in cells; host or cells: HepG2
T1 sequence (P11021 19-654): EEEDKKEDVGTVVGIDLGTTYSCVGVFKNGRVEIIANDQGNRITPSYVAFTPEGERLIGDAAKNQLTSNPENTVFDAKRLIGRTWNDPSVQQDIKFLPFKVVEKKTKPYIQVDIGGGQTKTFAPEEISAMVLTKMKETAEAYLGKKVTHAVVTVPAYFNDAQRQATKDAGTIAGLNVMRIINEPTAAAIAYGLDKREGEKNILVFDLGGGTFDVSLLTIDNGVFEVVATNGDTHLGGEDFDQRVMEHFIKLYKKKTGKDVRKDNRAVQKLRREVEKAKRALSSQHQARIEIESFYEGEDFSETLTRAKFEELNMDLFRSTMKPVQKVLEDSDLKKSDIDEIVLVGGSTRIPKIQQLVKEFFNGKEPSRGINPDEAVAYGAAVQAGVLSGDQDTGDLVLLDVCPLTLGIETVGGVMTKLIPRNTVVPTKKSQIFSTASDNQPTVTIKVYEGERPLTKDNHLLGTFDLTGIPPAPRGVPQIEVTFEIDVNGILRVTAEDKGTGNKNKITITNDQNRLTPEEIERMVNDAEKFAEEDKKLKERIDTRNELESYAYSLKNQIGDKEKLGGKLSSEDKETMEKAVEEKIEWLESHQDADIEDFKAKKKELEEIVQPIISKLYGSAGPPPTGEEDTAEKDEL
Method: Sulphorhodamine B labelled PST and PSTi8 were synthesized and purified from Genpro Biotech, India. In HepG2 cells, the competitive binding assay of PST and PSTi8 were performed and the labelled PST and/or PSTi8 concentrations were measured at 568 nm and 584 nm, respectively.

GRP78 receptor [3] = biological target: T1, GRP78 receptor; experiment: GRP78 ATPase enzymatic activity (Malachite green-phosphate assay); type: biochemical; design: purchased Abcam Inc., Cambridge, MA ab78432; settings: PSTi8 5 µM with PST 1 µM, GRP78 0.25 µM, 100 µM ATP, 37 °C, 30 min
Method: To determine that PSTi8 inhibit PST inhibitory action on GRP78 ATPase activity, we perform Concentration-dependent spectrophotometric assays using recombinant human GRP78 protein (catalog # ab78432, Abcam Inc., Cambridge, MA). PSTi8 was co-incubated with PST (1 µM) at different doses (1, 2.5 and 5 µM) in 50 µl of assay buffer (20 mM Tris, pH 7.5, 50 mM KCl, 1.5 mM MgCl2) containing GRP78 protein (0.25 µM). The reaction was started by adding 100 µM ATP and incubated at 37 °C for 30 min. On ATP hydrolysis free phosphate (Pi) was measured by a Malachite green-phosphate assay (catalog #10009325, Cayman)[11].

[4] = test system: HFrD-fed STZ induced IR mice; experiment: i.p. insulin tolerance test (ITT), HFrD-fed mice; type: in vivo; settings: 6 h fasted, mean ± s.e.m., n = 6
Method: as §1
(§2) i.p GTT, i.p ITT and i.p PTT were carried out in 6 hr fasted mice. The blood glucose level was measured from tail tip using Contour TS blood glucose meter. The AUC is calculated using GraphPad Prism 5.0 software[4],[13].

[5] = test system: HFrD-fed STZ induced IR mice; experiment: i.p. glucose tolerance test (GTT), HFrD-fed mice; type: in vivo; settings: 6 h fasted, mean ± s.e.m., n = 6
Method: as §1, §2

time up to which plasma concentration was observed [1]: ≤ 6 h
inhibition at 0.3 µM (GRP78 receptor [2]; PSTi8 300 nM against sulphorhodamine labelled PST 25 nM): > 50%
enhancement of ATPase activity of GRP78 inhibited by PST (GRP78 receptor [3]): ~50%
SMILES: CSCC[C@H](NC(=O)[C@H](CCC(=O)O)NC(=O)[C@H](CCC(=O)O)NC(=O)[C@H](CCC(=O)O)NC(=O)[C@H](CCC(=O)O)NC(=O)[C@H](CCC(=O)O)NC(=O)[C@H](CCCCN)NC(=O)[C@H](CCC(N)=O)NC(=O)[C@H](CCC(N)=O)NC(=O)[C@H](CO)NC(=O)[C@H](Cc1c[nH]cn1)NC(=O)[C@H](CCC(=O)O)NC(=O)[C@H](CCC(N)=O)NC(=O)[C@H](CCC(=O)O)NC(=O)CNC(=O)[C@H](CCCCN)NC(=O)CNC(=O)[C@H](CCC(=O)O)NC(=O)[C@@H]1CCCN1)C(=O)N[C@@H](C)C(=O)N[C@H](C(N)=O)C(C)C [PSTi8] (H-PEGKGEQEHSQQKEEEEEMAV-NH2)
effect on blood glucose level (C57Bl/6 mice): did not show any decrease in glucose level

inhibition at 0.1 µM (GRP78 receptor [2]; PST 100 nM against sulphorhodamine labelled PSTi8 150 nM): > 50%
SMILES: CSCC[C@H](NC(=O)[C@H](CCC(=O)O)NC(=O)[C@H](CCC(=O)O)NC(=O)[C@H](CCC(=O)O)NC(=O)[C@H](CCC(=O)O)NC(=O)[C@H](CCC(=O)O)NC(=O)[C@H](CCCCN)NC(=O)[C@H](CCC(N)=O)NC(=O)[C@H](CCC(N)=O)NC(=O)[C@H](CO)NC(=O)[C@H](Cc1c[nH]cn1)NC(=O)[C@H](CCC(=O)O)NC(=O)[C@H](CCC(N)=O)NC(=O)[C@H](CCC(=O)O)NC(=O)CNC(=O)[C@H](CCCCN)NC(=O)CNC(=O)[C@H](CCC(=O)O)NC(=O)[C@@H]1CCCN1)C(=O)N[C@@H](C)C(=O)N[C@H](C(=O)N[C@H](C(=O)N1CCC[C@H]1C(=O)N[C@@H](CCC(N)=O)C(=O)NCC(=O)N[C@@H](CC(C)C)C(=O)N[C@@H](Cc1ccccc1)C(=O)N[C@@H](CCCNC(=N)N)C(=O)NCC(N)=O)C(C)C)C(C)C [PST, Pancreastatin] (H-PEGKGEQEHSQQKEEEEEMAVVPQGLFRG-NH2)

SMILES: CN(C)C(=N)N=C(N)N [metformin]
AUC, ipITT ([4]; acute metformin p.o. 300 mg/kg, 30 min before insulin 0.6 IU/kg): 19828.5 ± 1004.11 mg·min/dL
AUC, ipITT ([4]; chronic metformin p.o. 300 mg/kg for 7 days, insulin 0.6 IU/kg): 16417.5 ± 1222.35 mg·min/dL
AUC, i.p GTT ([5]; acute metformin p.o. 300 mg/kg, 30 min before glucose 1 g/kg): 44068.5 ± 3070.1 mg·min/dL
AUC, i.p GTT ([5]; chronic metformin p.o. 300 mg/kg for 7 days, glucose 1 g/kg): 36913.13 ± 891.89 mg·min/dL
